Data set [1] relates to C57 mice. Put plainly: forced swimming test in mice. The format is in vivo. As to conditions: 3 mg/kg p.o.; for immobility time during minutes 2-6, Mean value: one hour after the administration. An excerpt:
(§1) The core manifestations of depression are despair, helplessness, and anhedonia. The forced swimming test is commonly used to evaluate despair-like behavior. In this test, the animal is placed in an unpleasant and inescapable environment (a water tank). […] Anhedonia means a loss of interest in things that were once pleasurable; in rodents, it is typically manifested as a reduced preference for sweet foods (sucrose). Therefore, the in vivo efficacy of the compounds of the examples of the present disclosure in mice can be evaluated by forced swimming and sucrose preference tests.
(§2) Female/male C57 mice, purchased from SPF (Suzhou) Biotechnology Co., Ltd.
(§3) Note: ①Vehicle: 5% of DMSO + 5% of HS-15 + 90% of 20% hydroxypropyl-β-cyclodextrin (10 mL/kg, p.o.).
Forced swimming: Animals were divided into a control group and various test drug administration dose groups, which were subjected to vehicle and test drug administration, respectively. One hour after the administration, the animals were placed in a 25 °C plexiglass cylinder with a water depth of 20 cm. The swimming status of the animals in the water was recorded by video, and the immobility time of the animals (characterized by floating in the water and stopping struggling) during minutes 2-6 was recorded and analyzed.
(§4) Experimental data were expressed as χ ± SEM. One-way analysis of variance was employed, and pairwise comparisons were performed using Dunnett's multiple comparisons tests. The floating immobility time, swimming time, and struggling time were recorded.

Data set [2] concerns C57 mice. Nature of the data set: sucrose preference test in mice. As to conditions: 3 mg/kg p.o.; for Sucrose preference degree, Mean value: mice with chronic stress, 2 h free drinking. It counts as in vivo.
Text: as §1, §2, §3
Sugar preference: D1: a 1% sucrose solution was provided on both sides; D2/3: drinking water was provided on one side, while a 1% sucrose solution was provided on the other side; D4: water and food were deprived; D5: sucrose preference degree was tested. During the test, the mice with chronic stress were subjected to administration according to the experimental groups. After the administration, pre-weighed sucrose solution and drinking water were provided on […]. The animals were allowed free access to drinking for 2 h in a dark environment, and during this period, the positions of the sucrose solution and drinking water were switched at the 1-hour mark.
as §4
Sucrose preference degree (%) = sucrose solution consumption/(sucrose solution consumption + purified water consumption) × 100%.

The nature of data set [3]: in vivo pharmacokinetic experiment in mice. On the set-up: species or system ICR mice. As to conditions: male, ICR, mouse; oral intragastric administration 10 mg/kg, single, plasma. As to the method: Male ICR mice were subjected to oral intragastric administration. The plasma concentrations of the compounds of the present disclosure in the mice were measured, the PK parameters were calculated, and pharmacokinetic evaluation was performed on the compounds of the present disclosure.
Drug preparation: according to the weight of the weighed drug, the preparation volume was calculated; 5% of DMSO and 5% of HS-15 were added sequentially; after the drug was fully dissolved, 90% of a 20% aqueous β-cyclodextrin solution was added, and the mixture was well mixed for later use.
Route of administration: oral intragastric administration, at a dose of 10 mg/kg.
Administration frequency and duration: single administration.
ICR mice were stratified according to body weight and then randomly grouped, with 9 mice per group. The mice were fasted overnight prior to the experiment. The mice were subjected to oral intragastric administration. At 0 h, 0.167 h, 0.333 h, 0.5 h, 1 h, 2 h, 4 h, 6 h, 8 h, 12 h, and 24 h, 50 µL of blood was collected from the fundus vein of each mouse into a sample tube containing heparin sodium as an anticoagulant, and then the tube was placed in wet ice and centrifuged at 4000 r·min^-1 for 10 min. The plasma was separated, and cryopreserved in a refrigerator at -80 °C for testing.
The concentrations of the plasma samples were measured by high-performance liquid chromatography-tandem mass spectrometry (LC-MS/MS). The retention times of the compounds and internal standard, chromatographic acquisitions, and integrals of chromatograms were processed using the software Analyst (AB SCIEX), and statistical analysis of the data was performed using the software Microsoft office. The plasma concentrations were processed using a non-compartmental model of the pharmacokinetic software WinNonlin™ Version 6.3 (Pharsight, Mountain View, CA), and the pharmacokinetic parameters were calculated using a linear log-trapezoidal method. Table 4. Results of pharmacokinetic experiment in mice

The values below come from patent publication EP4711377A1, “STEROID COMPOUND, PREPARATION METHOD THEREFOR, AND USE THEREOF” (Shujing Biopharma Co., Ltd, priority 2023, dated 2024).

Each structure is given as a SMILES string.

Take `C[C@@H]1C[C@H](C(=O)Cn2ncnn2)[C@@]2(C)CC[C@H]3[C@@H](CC[C@@H]4C[C@](C)(O)[C@@H](C)C[C@@H]43)[C@H]12` [Example 9, 1-((2S,3S,5R,8R,9R,10S,13S,14S,15R,17S)-3-Hydroxy-2,3,13,15-tetramethylhexadecahydro-1H-cyclopenta[a]phenanthren-17-yl)-2-(2H-tetrazol-2-yl)ethan-1-one]: the “immobility time during minutes 2-6, Mean value” in data set [1] was found to be 54.68 s. The “effect on immobility time compared to the blank group” value in data set [1] (conclusion in words) was “significantly reduce the immobility time”. Also, in data set [2], the “Sucrose preference degree, Mean value” is 88.37%. The “effect on sucrose preference degree compared to the blank group” value in data set [2] (conclusion in words) is on record as “significantly improve the sucrose preference degree”. In data set [3], the area under the curve AUC(0-t) came out at 23600 ng·h/mL, the Cmax came out at 3480 ng/mL, the time of peak concentration (Tmax) was found to be 0.33 h and the half-life was 2.35 h.
With `C[C@@]1(O)CC[C@H]2[C@H](CC[C@@H]3[C@@H]2CC[C@]2(C)[C@@H](C(=O)Cn4cc(C#N)cn4)CC[C@@H]32)C1` [Sage-217, reference compound], the “immobility time during minutes 2-6, Mean value” in data set [1] came out at 56.38 s. For the same molecule, the “Sucrose preference degree, Mean value” in data set [2] was found to be 84.31%. Moreover, in data set [3], the AUC(0-t) was found to be 9160 ng·h/mL, the Cmax was 1510 ng/mL and the time to peak (Tmax) was 1 h.
With `C[C@H]1C[C@H]2[C@H](CC[C@@H]3[C@@H]2CC[C@]2(C)[C@@H](C(=O)Cn4ncnn4)CC[C@@H]32)C[C@]1(C)O` [Example 20, 1-((2S,3S,5R,8R,9R,10S,13S,14S,17S)-3-Hydroxy-2,3,13-trimethylhexadecahydro-1H-cyclopenta[a]phenanthren-17-yl)-2-(2H-tetrazol-2-yl)ethan-1-one], in data set [3], the AUC(0-t) turned out to be 32200 ng·h/mL, the Cmax turned out to be 2580 ng/mL, the time of peak concentration (Tmax) was found to be 0.5 h and the half-life is 2.59 h.
